Tests used:
PPARα LBD = target: T1, PPARα LBD (Homo sapiens, UniProt Q07869); assay: FRET assay: ligand effect on CBP fragment / NCoR ID-C binding to PPAR LBD; assay type: biochemical; conditions: 10 nM PPAR LBD; for effect on apparent affinity of PPARα for the co-activator fragment from CBP: CBP (57-454)
T1 construct: made in house; host or cells: bacterial BL21-DE3, vector pRSETA
T1 sequence (Q07869 192-468): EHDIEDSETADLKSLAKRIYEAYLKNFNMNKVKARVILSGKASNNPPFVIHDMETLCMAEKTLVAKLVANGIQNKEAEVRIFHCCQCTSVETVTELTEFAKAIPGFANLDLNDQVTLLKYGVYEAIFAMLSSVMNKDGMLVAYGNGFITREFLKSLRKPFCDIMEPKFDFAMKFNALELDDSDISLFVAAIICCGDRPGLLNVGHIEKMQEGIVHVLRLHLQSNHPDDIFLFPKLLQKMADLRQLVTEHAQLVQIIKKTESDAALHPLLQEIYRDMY
Description: (§1) The experimentally determined α value is the ratio of cofactor affinities in the presence and absence of a saturating concentration of ligand. This analysis permits a direct comparison of the effects of compounds, independent of cofactor concentration and differences in coregulator affinity for the individual receptors. […] 98(9): p.
(§2) The effects of the coregulator environment on the apparent affinities and selectivities of various ligands were than examined. Experimentally determined pKs and the α values derived from the FRET assay were used to calculate the apparent affinity of the ligand for the receptor/cofactor complex (i.e. K/α).
(§3) FIG. 5 illustrates the effect of ligands on coactivator and corepressor binding to PPAR subtypes determined by FRET.

full length human PPARα = target: T2, full length human PPARα (Homo sapiens, UniProt Q07869); assay: Mammalian two-hybrid assay (CV-1 cells); assay type: cell-based; conditions: VP16-PPARα, GAL4-NCoR (2239-2300), result in words
T2 construct: expressed in transfected cells; host or cells: CV-1 cells, vector pVP16 (Clonetech)
T2 sequence (Q07869 1-468): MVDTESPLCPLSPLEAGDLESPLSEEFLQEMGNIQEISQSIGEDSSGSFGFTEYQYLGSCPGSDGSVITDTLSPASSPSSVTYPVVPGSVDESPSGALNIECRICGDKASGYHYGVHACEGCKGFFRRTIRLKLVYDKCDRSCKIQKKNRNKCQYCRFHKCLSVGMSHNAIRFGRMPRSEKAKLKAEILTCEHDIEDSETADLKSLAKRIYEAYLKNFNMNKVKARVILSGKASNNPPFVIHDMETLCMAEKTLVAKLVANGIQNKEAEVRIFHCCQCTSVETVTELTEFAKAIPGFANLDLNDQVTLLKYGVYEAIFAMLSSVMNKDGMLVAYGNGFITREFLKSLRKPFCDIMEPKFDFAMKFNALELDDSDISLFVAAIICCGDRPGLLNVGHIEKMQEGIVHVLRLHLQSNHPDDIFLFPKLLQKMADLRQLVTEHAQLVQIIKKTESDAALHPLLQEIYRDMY
Description: Mammalian two-hybrid assays were used to examine the ability of the tyrosine-based class of PPAR ligands to promote association or dissociation of the co-activator CBP and the corepressor NCoR in the context of a cellular environment. The assays for the three PPAR subtypes used full length human PPARα, PPARγ2 or PPARδ fused to the activation domain of VP16 and previously identified interaction domains of CBP and NCoR fused to the DNA binding domain of GAL4.
Expression plasmids for the VP16-human PPAR constructs were prepared by inserting amplified cDNAs encoding full length PPARα, PPARγ2 and PPARδ fused to amino acids 410-490 of the VP16 viral activation domain, into the expression vector pVP16 (Clonetech). […] The reporter plasmid was (UAS)5-tk-SPAP, and the internal control plasmid for all transfections was β-galactosidase expression vector (pCH110, Amersham).
CV-1 cells were maintained in culture in DME high glucose medium supplemented with 10% FBS and 2 mM glutamine in a humidified incubator (5% CO2 in air) at 37° C. Cells were harvested 72 hours prior to experimental use and placed in phenol red free D-MEM/F-12 medium with 15 mM HEPES supplemented with 10% charcoal/dextran-treated FBS (HyClone, Logan, Utah). The cells were harvested and seeded at 2.0×10^4 cell per well in a 96-well plate the day prior to transfection. Cells were transfected for 16 hr using Lipofectamine (Life Technologies, Inc., Rockville, Md.) essentially according to the manufacturer's instructions. The total amount of DNA transfected into each well was 80 ng. Transfection mixtures contained 8 ng VP16-PPAR plasmid, 8 ng SPAP reporter, 25 ng of pCH110(β-galactosidase) control plasmid, 35 ng of pBluescript II KS+ (Clonetech) and 4 ng of either coactivator or corepressor plasmid. Transfection quantities for full length PPAR and cofactor plasmids were optimized to generate a signal that was half of the maximal activation. These conditions would allow for dissociation or association to be experimentally determined for each ligand evaluated. Stock solutions of drugs were prepated in DMSO and dilutions were made in phenol red-free D-MEM/F-12 with 15 mM HEPES supplemented with 10% charcoal stripped, delipidated, heat inactivated (62° C. for 35 min) bovine calf serum (Sigma, St. Louis, Mo.) such that the final concentration of DMSO was 0.1%. Transfection mixtures were aspirated and 100 μl, of medium containing drug was added to each well.

PPARδ LBD = target: T3, PPARδ LBD (Homo sapiens, UniProt Q03181); assay: FRET assay: ligand effect on CBP fragment / NCoR ID-C binding to PPAR LBD; assay type: biochemical; conditions: 10 nM PPAR LBD, CBP (57-454)
T3 construct: made in house; host or cells: bacterial BL21-DE3, vector pRSETA
T3 sequence (Q03181 139-441): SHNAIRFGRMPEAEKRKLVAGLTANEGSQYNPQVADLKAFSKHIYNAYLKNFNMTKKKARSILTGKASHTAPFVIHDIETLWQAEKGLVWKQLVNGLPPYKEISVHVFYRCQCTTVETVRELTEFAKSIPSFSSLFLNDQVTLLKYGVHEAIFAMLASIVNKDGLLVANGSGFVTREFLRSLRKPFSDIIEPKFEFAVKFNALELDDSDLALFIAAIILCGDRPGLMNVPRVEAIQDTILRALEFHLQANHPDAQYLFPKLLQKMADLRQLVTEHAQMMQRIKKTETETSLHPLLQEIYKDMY
Description: as §1, §2, §3

PPARδ LBD / RXRα LBD = target: T4, PPARδ LBD / RXRα LBD (Homo sapiens, UniProt Q03181); assay: FRET assay: ligand effect on RXRα LBD binding to PPAR LBD; conditions: 10 nM PPAR LBD, 4 concentrations of RXR
T4 sequence (Q03181 139-441): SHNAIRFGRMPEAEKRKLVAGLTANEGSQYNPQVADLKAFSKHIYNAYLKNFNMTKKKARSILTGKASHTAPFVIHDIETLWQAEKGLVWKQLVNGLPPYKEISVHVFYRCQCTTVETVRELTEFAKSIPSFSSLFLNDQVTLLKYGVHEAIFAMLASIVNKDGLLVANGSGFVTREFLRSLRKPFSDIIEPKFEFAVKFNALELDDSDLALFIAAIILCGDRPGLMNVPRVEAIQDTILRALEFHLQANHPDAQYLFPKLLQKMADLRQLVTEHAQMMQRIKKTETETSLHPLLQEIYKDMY
T4 sequence (P19793 225-462 partner limits assumed): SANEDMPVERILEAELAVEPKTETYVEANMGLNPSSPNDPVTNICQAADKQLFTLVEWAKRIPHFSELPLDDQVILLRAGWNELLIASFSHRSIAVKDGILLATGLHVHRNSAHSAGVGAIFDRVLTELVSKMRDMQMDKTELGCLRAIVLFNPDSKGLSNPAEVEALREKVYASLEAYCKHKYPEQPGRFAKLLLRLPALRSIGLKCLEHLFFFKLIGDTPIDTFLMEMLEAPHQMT

GAL4-CBP (1-115) = GAL4-CBP (1-115) (UniProt P04386 1-147; P45481 1-115); assay: cell-based or functional assay

C/C(=C/C(=O)c1ccccc1)N[C@@H](Cc1ccc(OCCc2nc(-c3ccccc3)oc2C)cc1)C(=O)O [GW9544]
effect on apparent affinity of PPARα for the co-activator fragment from CBP (PPARα LBD): increased the apparent affinity

CCC(=O)NC[C@H](Cc1ccc(OCCc2nc(-c3ccccc3)oc2C)cc1)N/C(C)=C\C(=O)c1ccc(C(F)(F)F)cc1 [GW6471]
effect on PPARα interaction with NCoR (full length human PPARα): modulation of co-repressor interaction was seen

Cc1cc(SCc2sc(-c3ccc(C(F)(F)F)cc3)nc2C)ccc1OCC(=O)O [GW1516]
effect on apparent affinity of PPARα for the co-activator fragment from CBP (PPARα LBD): increased the apparent affinity
effect on affinity of PPARα for the co-repressor peptide (PPARα LBD; NCoR ID-C): decreased the affinity

Cc1oc(-c2ccccc2)nc1CCOc1ccc(C[C@H](Nc2ccccc2C(=O)c2ccccc2)C(=O)O)cc1 [GW2570, farglitazar]
effect on apparent affinity of PPARδ for the co-activator fragment from CBP (PPARδ LBD): increased the apparent affinity
effect on apparent affinity of PPARα for the co-activator fragment from CBP (PPARα LBD): increased the apparent affinity
promotion of association of PPARδ with RXR (PPARδ LBD / RXRα LBD): most effective

B1: VP16-human PPARδ (full length) (other)
chain: LSTAPPTDVSLGDELHLDGEDVAMAHADALDDFDLDMLGDGDSPGPGFTPHDSAPYGALDMADFEFEQMFTDALGIDEYGGMEQPQEEAPEVREEEEKEEVAEAEGAPELNGGPQHALPSSSYTDLSRSSSPPSLLDQLQMGCDGASCGSLNMECRVCGDKASGFHYGVHACEGCKGFFRRTIRMKLEYEKCERSCKIQKKNRNKCQYCRFQKCLALGMSHNAIRFGRMPEAEKRKLVAGLTANEGSQYNPQVADLKAFSKHIYNAYLKNFNMTKKKARSILTGKASHTAPFVIHDIETLWQAEKGLVWKQLVNGLPPYKEISVHVFYRCQCTTVETVRELTEFAKSIPSFSSLFLNDQVTLLKYGVHEAIFAMLASIVNKDGLLVANGSGFVTREFLRSLRKPFSDIIEPKFEFAVKFNALELDDSDLALFIAAIILCGDRPGLMNVPRVEAIQDTILRALEFHLQANHPDAQYLFPKLLQKMADLRQLVTEHAQMMQRIKKTETETSLHPLLQEIYKDMY
mammalian two-hybrid reporter, fold association with GW1929 and GW7845 (GAL4-CBP (1-115)): ~2 fold

— US20050227220A1, “Compositions and Methods for Evaluating and Designing Nuclear Receptor Ligands that Modulate Co-Regulator Affinity” (priority 2002, published 2005)
